The text below walks through data of patent US20160106102A1, “KNOWN AND NEW HETEROCYCLIC COMPOUNDS AS PEST CONTROL AGENTS” (BAYER CROPSCIENCE AKTIENGESELLSCHAFT, priority 2013, published 2016).

Molecules are shown by their SMILES.

Data set [1] is described as follows: log P determination by LC-MS in the acidic range. The data set is classed as physicochemical. To be noted: LC-MS in the acidic range. The source says:
The LC-MS determination in the acidic range is effected at pH 2.7 using 0.1% aqueous formic acid and acetonitrile (contains 0.1% formic acid) as eluents, linear gradient from 10% acetonitrile to 95% acetonitrile. Alternatively, the determination is effected in the acidic range at pH 2.3 using 0.1% aqueous phosphoric acid and acetonitrile as eluents; linear gradient from 10% acetonitrile to 95% acetonitrile.

Data set [2] has as its system Myzus persicae. Briefly: Myzus persicae - sachet test. The data set is classed as in vivo. As to conditions: 100% = all animals killed. A digest of the protocol:
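Active ingredient dissolved with 2% N-methylpyrrolidone and 2% diacetone alcohol, diluted in water, then pipetted into nutrient medium. Plate sealed and paired with a plate carrying green peach aphids. Kill in % scored after the set time (100% = all dead, 0% = none dead).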

Data set [3] deals with Myzus persicae. Put plainly: Myzus persicae - spray test. To be noted: application rate of 500 g/ha; after 6 days; sprayed Chinese cabbage leaf discs infested by all stages; 100% = all aphids killed. Type of data set: in vivo. In a few lines:
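Chinese cabbage leaf discs infested with all stages of green peach aphid sprayed with compound in acetone/DMF formulation with alkylaryl polyglycol ether emulsifier, diluted in emulsifier-containing water. Efficacy (% aphids killed) assessed after 6 days.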

[4] abbreviates: application rate of 6 ppm in nutrient medium.
The mark [5] stands for this setting: application rate of 30 ppm in nutrient medium.

With `Cc1cc(NC(=O)c2cccnc2)nn1CC1CCCO1` (stereo not drawn) [Compound I-1-176], in data set [1], the “log P (acid)” value turned out to be 1.06. The “efficacy (kill in %)” value in the data set on Myzus persicae [2] (setting [4]) and with Myzus persicae [2] (setting [5]) was 80% throughout. The molecule also returned an efficacy in % in the data set on Myzus persicae [3] of 100%.

Take `COCn1nc(N(C)C(=O)c2cccnc2)cc1C` [Compound I-1-178]: the “log P (acid)” value in data set [1] is 0.7. Further, the “efficacy (kill in %)” value in the data set with Myzus persicae [2] (setting [5]) is given as 80%. In the data set on Myzus persicae [3], this molecule returned an efficacy in % of 100%.

In the case of `Cc1cc(NC(=O)c2cccnc2)nn1CC1OCCO1` [Compound I-1-180], the “log P (acid)” value in data set [1] was determined as 0.81. The results for the “efficacy (kill in %)” value in the data set on Myzus persicae [2] (setting [4]) and with Myzus persicae [2] (setting [5]) were 80% and 100%, respectively. The efficacy in % in the data set on Myzus persicae [3] was determined as 100%.

As for `Cc1cc(N(C)C(=O)c2cccnc2)nn1CC1CCCO1` (stereo not drawn) [Compound I-1-181], the “log P (acid)” value in data set [1] is given as 1.05. The “efficacy (kill in %)” value with Myzus persicae [2] (setting [5]) worked out at 80%. Further, in the data set on Myzus persicae [3], the efficacy in % is on record as 90%.

As for `Cc1cc(NC(=O)c2cccnc2)nn1CCS(C)(=O)=O` [Compound I-1-182], the “log P (acid)” value in data set [1] is listed as 0.49. The “efficacy (kill in %)” value in the data set with Myzus persicae [2] (setting [4]) and in the data set with Myzus persicae [2] (setting [5]) was 100% each time. This molecule also returned an efficacy in % in the data set with Myzus persicae [3] of 100%.

With `Cc1cc(NC(=O)c2cccnc2)nn1CC[S+](C)[O-]` (stereo not drawn) [Compound I-1-183], the “log P (acid)” value in data set [1] worked out at 0.25. In addition, the “efficacy (kill in %)” value with Myzus persicae [2] (setting [4]) and in the data set on Myzus persicae [2] (setting [5]) was 100% in each case. The efficacy in % in the data set with Myzus persicae [3] was 90%.

For the molecule `CSCCn1nc(NC(=O)c2cccnc2)cc1C` [Compound I-1-184], the “log P (acid)” value in data set [1] was 1.22. In addition, the “efficacy (kill in %)” value in the data set with Myzus persicae [2] (setting [4]) and in the data set with Myzus persicae [2] (setting [5]) was 100% each time. This molecule also showed an efficacy in % in the data set with Myzus persicae [3] of 90%.

Take `Cc1cc(NC(=O)c2cccnc2)nn1CCC#N` [Compound I-1-185]: in data set [1], the “log P (acid)” value was 0.57. In addition, the “efficacy (kill in %)” value with Myzus persicae [2] (setting [4]) and in the data set with Myzus persicae [2] (setting [5]) was 100% in each case. This molecule gave an efficacy in % in the data set with Myzus persicae [3] of 100%.

With `Cc1cc(N(C)C(=O)c2cccnc2)nn1CC[S+](C)[O-]` (stereo not drawn) [Compound I-1-186], the “log P (acid)” value in data set [1] was determined as 0.16. Further, the “efficacy (kill in %)” value in the data set on Myzus persicae [2] (setting [4]) and in the data set with Myzus persicae [2] (setting [5]) was 100% throughout. Also, the efficacy in % with Myzus persicae [3] is listed as 100%.

Consider `CSCCn1nc(N(C)C(=O)c2cccnc2)cc1C` [Compound I-1-187], for which the “log P (acid)” value in data set [1] is on record as 1.17. Moreover, the “efficacy (kill in %)” value in the data set on Myzus persicae [2] (setting [4]) and in the data set on Myzus persicae [2] (setting [5]) was 100% throughout. Also, the efficacy in % with Myzus persicae [3] stood at 90%.

Regarding `Cc1cc(NC(=O)c2cccnc2)nn1CCC(F)(F)F` [Compound I-1-188], the “log P (acid)” value in data set [1] was 1.45. In addition, the “efficacy (kill in %)” value in the data set with Myzus persicae [2] (setting [4]) and in the data set on Myzus persicae [2] (setting [5]) was 100% in each case. In the data set with Myzus persicae [3], this molecule showed an efficacy in % of 90%.

In the case of `CCSCCn1nc(NC(=O)c2cccnc2)cc1C` [Compound I-1-189], in data set [1], the “log P (acid)” value came to 1.53. Moreover, the “efficacy (kill in %)” value in the data set with Myzus persicae [2] (setting [4]) and with Myzus persicae [2] (setting [5]) was 100% throughout. Further, in the data set on Myzus persicae [3], the efficacy in % is 90%.

Consider `CC[S+]([O-])CCn1nc(NC(=O)c2cccnc2)cc1C` (stereo not drawn) [Compound I-1-190], for which the “log P (acid)” value in data set [1] was determined as 0.46. Moreover, the “efficacy (kill in %)” value with Myzus persicae [2] (setting [4]) and in the data set with Myzus persicae [2] (setting [5]) was 100% in each case. For the same molecule, the efficacy in % with Myzus persicae [3] turned out to be 100%.

As to `COC(=O)OCCn1nc(NC(=O)c2cccnc2)cc1C` [Compound I-1-191], the “log P (acid)” value in data set [1] is 0.98. Besides, the “efficacy (kill in %)” value in the data set on Myzus persicae [2] (setting [4]) and in the data set with Myzus persicae [2] (setting [5]) was 100% each time. Moreover, the efficacy in % in the data set with Myzus persicae [3] came to 90%.
